Drawing on PubChem BioAssay (NCI), this text covers TGI for twelve compounds.

Test systems include NCI-H460 lung; HS 578T breast; PC-3 prostate; M14 melanoma; HCT-15 colon; OVCAR-3 ovarian; MOLT-4 leukemia; KM12 colon; A498 renal; OVCAR-4 ovarian; 786-0 renal; HOP-92 NSCLC; HOP-62 NSCLC; MCF7 breast.
Experiment in all cases: NCI-60 cell line screen, 48 h

The structures appear in SMILES notation.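 Following 48 hours of exposure in 96-well plates, responses at five concentrations were used to interpolate endpoints linearly. Definition used: TGI = concentration required for complete inhibition of growth.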

On to `COC(=O)c1ccc(S)c(S(=O)(=O)Nc2n[nH]c(N)n2)c1`, for which the TGI in the assay on NCI-H460 lung, with HS 578T breast, in the assay with PC-3 prostate, in the assay on M14 melanoma, with HCT-15 colon and in the assay on OVCAR-3 ovarian was over 100 µM in each case. Besides, the TGI with MOLT-4 leukemia, with KM12 colon, in the assay with A498 renal, with OVCAR-4 ovarian, in the assay on 786-0 renal and with HOP-92 NSCLC was over 100 µM in each case.
Regarding `[O-]c1c2cc(-[n+]3c(-c4ccccc4)cc(-c4ccccc4)cc3-c3ccccc3)cc1COCCOCCOCCOCCOC2`, the TGI is over 100 µM in the assay on M14 melanoma; over 100 µM in the assay on HCT-15 colon; over 100 µM with MOLT-4 leukemia; 50 µM in the assay on KM12 colon; over 100 µM in the assay with OVCAR-4 ovarian; over 100 µM with 786-0 renal. For the same compound, the TGI with HOP-92 NSCLC is 73.9 µM; with HOP-62 NSCLC, over 100 µM.
As for `O=[N+]([O-])c1cccc2nc3ccccc3c(NCCCNc3c4ccccc4nc4cccc([N+](=O)[O-])c34)c12`, the TGI with PC-3 prostate turned out to be 0.143 µM; in the assay on M14 melanoma, 0.0744 µM; in the assay on OVCAR-3 ovarian, 0.0906 µM; in the assay on MOLT-4 leukemia, 0.0972 µM; with KM12 colon, 0.073 µM; with OVCAR-4 ovarian, 0.302 µM. In addition, the TGI in the assay on 786-0 renal was under 0.01 µM; in the assay on HOP-92 NSCLC, under 0.01 µM; in the assay on HOP-62 NSCLC it was 0.0844 µM.
For `C/C(=C\CBr)CCC(Br)C(C)(C)Cl` (stereo unspecified), the TGI in the assay on NCI-H460 lung, with M14 melanoma, in the assay with HCT-15 colon, in the assay on MOLT-4 leukemia, in the assay on KM12 colon and with OVCAR-4 ovarian was over 100 µM each time. Moreover, the TGI in the assay on 786-0 renal, with HOP-92 NSCLC and in the assay on HOP-62 NSCLC was over 100 µM throughout.
In the case of `CCOC(=O)C1(F)S(=O)(=O)OCCOS1(=O)=O`, the TGI in the assay with HS 578T breast, with PC-3 prostate, in the assay with M14 melanoma, in the assay with HCT-15 colon, in the assay with OVCAR-3 ovarian and in the assay with MCF7 breast was over 100 µM throughout. Also, the TGI in the assay on MOLT-4 leukemia, in the assay on KM12 colon, in the assay on OVCAR-4 ovarian, with 786-0 renal and in the assay with HOP-62 NSCLC was over 100 µM throughout.
In the case of `CCOC(=O)CNC(=O)C(CSC(=O)N(O)c1ccc(Cl)cc1)NC(=O)CCC(N)C(=O)OCC` (stereo unspecified), the TGI in the assay on NCI-H460 lung, in the assay on HS 578T breast, in the assay on PC-3 prostate, with M14 melanoma, in the assay with HCT-15 colon and with OVCAR-3 ovarian was over 50 µM each time. The TGI in the assay on MCF7 breast, in the assay with MOLT-4 leukemia, with KM12 colon, in the assay on 786-0 renal, in the assay on HOP-92 NSCLC and with HOP-62 NSCLC was over 50 µM in each case.
In the case of `Oc1ccc2cc(Br)ccc2c1-c1c(O)ccc2ccc(Br)cc12`, the TGI in the assay on NCI-H460 lung is 15.3 µM; in the assay on HS 578T breast, 24.2 µM; with PC-3 prostate, 25.3 µM; in the assay with M14 melanoma it was 33.1 µM; in the assay on HCT-15 colon it was 29 µM; with OVCAR-3 ovarian it was 27.8 µM. Also, the TGI in the assay with MCF7 breast is 28.8 µM; with MOLT-4 leukemia, 20.4 µM; with KM12 colon, 18.9 µM; in the assay with A498 renal, 32.1 µM; with 786-0 renal it was 28.2 µM; in the assay on HOP-62 NSCLC, 28.5 µM.
`COc1c(=O)cc2cc[nH]c3ccn(C)c1c23`: the TGI with NCI-H460 lung, with HS 578T breast, with PC-3 prostate, in the assay on M14 melanoma, in the assay on HCT-15 colon and in the assay with OVCAR-3 ovarian was over 100 µM each time. Moreover, the TGI in the assay on MCF7 breast, in the assay with MOLT-4 leukemia, in the assay with KM12 colon, in the assay with A498 renal, in the assay with OVCAR-4 ovarian and in the assay on 786-0 renal was over 100 µM each time. Moreover, the TGI in the assay on HOP-62 NSCLC is over 100 µM.
With `N#Cc1nc(-c2ccco2)oc1N`, the TGI in the assay on NCI-H460 lung, with HS 578T breast, in the assay with PC-3 prostate, with M14 melanoma, in the assay with HCT-15 colon and in the assay with MCF7 breast was over 10 µM in each case. Besides, the TGI in the assay on MOLT-4 leukemia, in the assay with KM12 colon, in the assay on OVCAR-4 ovarian, in the assay with 786-0 renal, in the assay on HOP-92 NSCLC and with HOP-62 NSCLC was over 10 µM each time.
`CCOC(=O)NNC(=O)NCc1cccc(CNC(=O)NNC(=O)OCC)c1`: the TGI in the assay on NCI-H460 lung, with HS 578T breast, in the assay on PC-3 prostate, in the assay on M14 melanoma, with HCT-15 colon and in the assay with OVCAR-3 ovarian was over 100 µM in each case. Besides, the TGI in the assay with MCF7 breast, with MOLT-4 leukemia, in the assay on KM12 colon, in the assay with A498 renal, with OVCAR-4 ovarian and in the assay on 786-0 renal was over 100 µM each time.
`Nc1ccc2c(c1)nc1n2C(c2c(F)cccc2F)SC1` (stereo unspecified): the TGI in the assay with NCI-H460 lung, with HS 578T breast, in the assay on PC-3 prostate, in the assay on M14 melanoma, in the assay on HCT-15 colon and with OVCAR-3 ovarian was over 100 µM throughout. The TGI in the assay with MCF7 breast, in the assay on MOLT-4 leukemia, in the assay on KM12 colon, in the assay with A498 renal, in the assay on OVCAR-4 ovarian and in the assay with 786-0 renal was over 100 µM in each case. Further, the TGI with HOP-62 NSCLC was over 100 µM.
Turning to `O=C(NC1CCN(Cc2ccccc2)CC1)c1ccc(I)cc1`, the TGI in the assay with NCI-H460 lung, in the assay with HS 578T breast, in the assay on PC-3 prostate, in the assay with M14 melanoma, in the assay on HCT-15 colon and in the assay with OVCAR-3 ovarian was over 100 µM in each case. Further, the TGI with MOLT-4 leukemia, in the assay on KM12 colon, with A498 renal, in the assay on OVCAR-4 ovarian, with 786-0 renal and in the assay on HOP-92 NSCLC was over 100 µM in each case. The same compound showed a TGI with HOP-62 NSCLC of over 100 µM.
